According to PubChem BioAssay AID256 (DTP/NCI, 2004):
Toxic doses and inconclusive results are not listed. Rule for the calls: active = survival T/C of 150% or more; inactive = T/C below 125% in these data.

Tested on: CD2F1 mice, L1210 leukemia ip, survival T/C
Experiment: NCI In Vivo Anticancer Drug Screen. Data for tumor model L1210 Leukemia (intraperitoneal) in CD2F1 (CDF1) mice
Details: higher = longer survival
Procedure, shortened: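 Mice carrying a transplanted tumor received test compound or vehicle alone. The value is the measurement in the treated group divided by that in the vehicle-treated control group.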

[1] = endpoint: mean survival time, dose: 100.0 mg/kg/injection, schedule: Q04DX003 (ip), vehicle: saline with Tween-80
[2] = endpoint: mean survival time, dose: 200.0 mg/kg/injection, schedule: Q04DX003 (ip), vehicle: saline with Tween-80
[3] = endpoint: mean survival time, dose: 400.0 mg/kg/injection, schedule: Q04DX003 (ip), vehicle: saline with Tween-80

Measured: T/C

CCCC[P+](CCCC)(CCCC)Cc1ccc([N+](=O)[O-])cc1
inactive: endpoint: mean survival time, dose: 12.5 mg/kg/injection, schedule: Q01DX009 (ip), vehicle: Klucel (hydroxypropylcellulose) (HPC) 104 % of control | endpoint: mean survival time, dose: 25.0 mg/kg/injection, schedule: Q01DX009 (ip), vehicle: Klucel (hydroxypropylcellulose) (HPC) 96 % of control | endpoint: mean survival time, dose: 25.0 mg/kg/injection, schedule: Q04DX003 (ip), vehicle: Klucel (hydroxypropylcellulose) (HPC) 94 % of control | endpoint: mean survival time, dose: 50.0 mg/kg/injection, schedule: Q01DX001 (ip), vehicle: Klucel (hydroxypropylcellulose) (HPC) 96 % of control | endpoint: mean survival time, dose: 50.0 mg/kg/injection, schedule: Q01DX009 (ip), vehicle: Klucel (hydroxypropylcellulose) (HPC) 115 % of control | endpoint: mean survival time, dose: 50.0 mg/kg/injection, schedule: Q04DX002 (ip), vehicle: Klucel (hydroxypropylcellulose) (HPC) 96 % of control | endpoint: mean survival time, dose: 50.0 mg/kg/injection, schedule: Q04DX003 (ip), vehicle: Klucel (hydroxypropylcellulose) (HPC) 94 % of control

COC(=O)c1ccc(SCC2=Nc3c(nc(N)[nH]c3=O)NCC2)cc1
inactive: endpoint: mean survival time, dose: 0.38 mg/kg/injection, schedule: Q01DX009 (ip), vehicle: distilled water + Tween-80 100 % of control | endpoint: mean survival time, dose: 0.75 mg/kg/injection, schedule: Q01DX009 (ip), vehicle: distilled water + Tween-80 101 % of control | endpoint: mean survival time, dose: 1.5 mg/kg/injection, schedule: Q01DX009 (ip), vehicle: distilled water + Tween-80 105 % of control | endpoint: mean survival time, dose: 3.0 mg/kg/injection, schedule: Q01DX009 (ip), vehicle: distilled water + Tween-80 100 % of control | endpoint: mean survival time, dose: 6.0 mg/kg/injection, schedule: Q01DX009 (ip), vehicle: distilled water + Tween-80 101 % of control | endpoint: mean survival time, dose: 12.0 mg/kg/injection, schedule: Q01DX009 (ip), vehicle: distilled water + Tween-80 93 % of control | endpoint: mean survival time, dose: 48.0 mg/kg/injection, schedule: Q01DX009 (ip), vehicle: distilled water + Tween-80 88 % of control

CCOc1cc(/C=N/NC(=O)C(O)c2ccccc2)ccc1O (stereo not given)
inactive: endpoint: mean survival time, dose: 100.0 mg/kg/injection, schedule: Q01DX009 (ip), vehicle: saline with Tween-80 95 % of control | endpoint: mean survival time, dose: 200.0 mg/kg/injection, schedule: Q01DX009 (ip), vehicle: saline with Tween-80 103 % of control | endpoint: mean survival time, dose: 400.0 mg/kg/injection, schedule: Q01DX009 (ip), vehicle: saline with Tween-80 101 % of control

COC(=O)c1ccc(N=NN(C)C)cc1
inactive: endpoint: mean survival time, dose: 23.0 mg/kg/injection, schedule: Q01DX009 (ip), vehicle: Klucel (hydroxypropylcellulose) (HPC) 108 % of control | endpoint: mean survival time, dose: 39.0 mg/kg/injection, schedule: Q01DX009 (ip), vehicle: Klucel (hydroxypropylcellulose) (HPC) 108 % of control | endpoint: mean survival time, dose: 65.0 mg/kg/injection, schedule: Q01DX009 (ip), vehicle: Klucel (hydroxypropylcellulose) (HPC) 116 % of control

O=C(OC1(c2ccccc2)C2C=CC1CC2)c1ccc([N+](=O)[O-])cc1 (stereo not given)
inactive: endpoint: mean survival time, dose: 50.0 mg/kg/injection, schedule: Q04DX002 (ip), vehicle: saline with Tween-80 102 % of control | endpoint: mean survival time, dose: 100.0 mg/kg/injection, schedule: Q04DX002 (ip), vehicle: saline with Tween-80 98 % of control | endpoint: mean survival time, dose: 200.0 mg/kg/injection, schedule: Q04DX002 (ip), vehicle: saline with Tween-80 95 % of control

OCC1c2ccc(Cl)cc2Nc2ccc(Cl)cc21 (stereo not given)
inactive: [1] 93 % of control | [2] 89 % of control | [3] 91 % of control

O=CC(C=O)[N+](=O)[O-]
inactive: endpoint: mean survival time, dose: 100.0 mg/kg/injection, schedule: Q01DX001 (ip), vehicle: saline 103 % of control | endpoint: mean survival time, dose: 200.0 mg/kg/injection, schedule: Q01DX001 (ip), vehicle: saline 103 % of control | endpoint: mean survival time, dose: 400.0 mg/kg/injection, schedule: Q01DX001 (ip), vehicle: saline 97 % of control

O=C(CCCCl)CC(O)(C(F)(F)Cl)C(F)(F)Cl
inactive: endpoint: mean survival time, dose: 25.0 mg/kg/injection, schedule: Q01DX009 (ip), vehicle: saline 94 % of control | endpoint: mean survival time, dose: 50.0 mg/kg/injection, schedule: Q01DX009 (ip), vehicle: saline 100 % of control | endpoint: mean survival time, dose: 100.0 mg/kg/injection, schedule: Q01DX009 (ip), vehicle: saline 94 % of control

CO[C@H]1Nc2c(ccc(C)c2O)C(=O)N2C=C(/C=C/C(N)=O)C[C@@H]12
inactive: endpoint: mean survival time, dose: 0.1 mg/kg/injection, schedule: Q01DX015 (ip), vehicle: saline 111 % of control | endpoint: mean survival time, dose: 0.2 mg/kg/injection, schedule: Q01DX015 (ip), vehicle: saline 119 % of control | endpoint: mean survival time, dose: 0.25 mg/kg/injection, schedule: Q01DX009 (ip), vehicle: saline sonified 106 % of control | endpoint: mean survival time, dose: 0.36 mg/kg/injection, schedule: Q01DX015 (ip), vehicle: saline 120 % of control | endpoint: mean survival time, dose: 0.5 mg/kg/injection, schedule: Q01DX009 (ip), vehicle: saline sonified 104 % of control | endpoint: mean survival time, dose: 1.0 mg/kg/injection, schedule: Q01DX009 (ip), vehicle: saline sonified 91 % of control | endpoint: mean survival time, dose: 1.0 mg/kg/injection, schedule: Q04DX003 (ip), vehicle: saline with Tween-80 117 % of control | endpoint: mean survival time, dose: 1.5 mg/kg/injection, schedule: Q04DX003 (ip), vehicle: saline with Tween-80 118 % of control | endpoint: mean survival time, dose: 25.0 micrograms/kg/injection, schedule: Q01DX009 (ip), vehicle: saline with Tween-80 108 % of control | endpoint: mean survival time, dose: 50.0 micrograms/kg/injection, schedule: Q01DX009 (ip), vehicle: saline with Tween-80 117 % of control | endpoint: mean survival time, dose: 100.0 micrograms/kg/injection, schedule: Q01DX009 (ip), vehicle: saline with Tween-80 109 % of control | endpoint: mean survival time, dose: 200.0 micrograms/kg/injection, schedule: Q01DX009 (ip), vehicle: saline with Tween-80 117 % of control | endpoint: median survival time, dose: 0.01 mg/kg/injection, schedule: Q01DX005 (ip), vehicle: DMSO 102 % of control | endpoint: median survival time, dose: 0.02 mg/kg/injection, schedule: Q01DX005 (ip), vehicle: DMSO 117 % of control | endpoint: median survival time, dose: 0.04 mg/kg/injection, schedule: Q01DX005 (ip), vehicle: DMSO 118 % of control

O=[N+]([O-])c1ccc(O/N=C(\CN2CCOCC2)c2ccc(Cl)cc2)c([N+](=O)[O-])c1
inactive: [1] 94 % of control | [2] 86 % of control | [3] 90 % of control
